Measurements taken from US20210379153A1, “COMBINATION THERAPIES COMPRISING SIRP ALPHA-BASED CHIMERIC PROTEINS” (Shattuck Labs, Inc., priority 2018, published 2021).
Where “and” joins values, the source holds several entries; their conditions need not be identical. Equal entries are not always repeated. One block for each substance: values may come before it.

Columns and labels:
FcγR-Ia = FcγR-Ia (Homo sapiens, UniProt P12314); assay: SPR binding to Fc receptor FcγR-Ia
Excerpt: Scale is shown and yellow arrows correspond with each identified monomer. A schematic of the hexamer species is shown to the right, depicting dimerization of the Fc domain and trimerization of the CD40L domain. […] Recombinant hSIRPα-Fc, hCD40L-Fc, and hIgG1 were used as positive controls. […] In both panels, the CHOK1 Parental is on the left and the CHOK1/hCD47 is on the right. […] For both graphs, the CHOK1 Parental is on the bottom. […] In this figure, the control is the top curve, the SIRPα-Fc-CD40L is the middle curve, and the anti-CD47 is the bottom curve.
The extracellular domain (ECD) of SIRPα and the ECD of CD40L were fused via an antibody Fc domain to generate SIRPαECD-Fc-CD40LECD chimeric proteins. When human proteins were used, the chimeric protein is referred to as hSIRPα-Fc-CD40L; when murine proteins were used, the chimeric protein is referred to as and mSIRPα-Fc-CD40L. […] The purified protein was then analyzed for the presence of each individual domain by Western blotting using anti-SIRPα, anti-Fc, and anti-CD40L antibodies (FIG. 3A, bottom). […] Next, binding affinities for SIRPα-Fc-CD40L to recombinant CD47, CD40, or Fc receptors were evaluated by surface plasmon resonance (SPR). […] A functional ELISA evaluated whether SIRPα-Fc-CD40L could outcompete a commercially available single-sided SIRPα-Fc control for binding to recombinant CD47 (FIG. 3H).

FcγR-IIb = target: T1, FcγR-IIb (Homo sapiens, UniProt P31994); assay: SPR binding to Fc receptor FcγR-IIb
T1 sequence (P31994 43-310): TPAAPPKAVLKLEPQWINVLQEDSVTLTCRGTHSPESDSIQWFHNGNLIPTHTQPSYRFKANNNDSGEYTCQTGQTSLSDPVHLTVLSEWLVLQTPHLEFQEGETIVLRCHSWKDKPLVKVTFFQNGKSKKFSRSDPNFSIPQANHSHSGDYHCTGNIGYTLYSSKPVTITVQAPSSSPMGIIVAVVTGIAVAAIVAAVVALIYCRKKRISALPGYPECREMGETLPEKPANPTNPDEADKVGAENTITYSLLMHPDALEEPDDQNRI
Excerpt: (§1) The extracellular domain (ECD) of SIRPα and the ECD of CD40L were fused via an antibody Fc domain to generate SIRPαECD-Fc-CD40LECD chimeric proteins. When human proteins were used, the chimeric protein is referred to as hSIRPα-Fc-CD40L; when murine proteins were used, the chimeric protein is referred to as and mSIRPα-Fc-CD40L. Generically, the chimeric protein is referred to as SIRPα-Fc-CD40L. […] Mammalian cells were then transfected with the hSIRPα-Fc-CD40L expressing construct, and the secreted protein was purified from conditioned media by affinity chromatography. The purified protein was then analyzed for the presence of each individual domain by Western blotting using anti-SIRPα, anti-Fc, and anti-CD40L antibodies (FIG. 3A, bottom). […] The reduced and deglycosylated form of the protein migrated at the predicted monomeric molecular weight of 90.1 kDa. […] Next, binding affinities for SIRPα-Fc-CD40L to recombinant CD47, CD40, or Fc receptors were evaluated by surface plasmon resonance (SPR). […] Finally, to confirm that SIRPα-Fc-CD40L interacted with native CD47 and CD40 in a similar manner to recombinant CD47 and CD40, CHOK1-hCD47 and CHOK1-hCD40 reporter cell lines were developed (FIG. 3F). […] A functional ELISA evaluated whether SIRPα-Fc-CD40L could outcompete a commercially available single-sided SIRPα-Fc control for binding to recombinant CD47 (FIG. 3H).

FcγR-IIIb = FcγR-IIIb (Homo sapiens, UniProt O75015); assay: SPR binding to Fc receptor FcγR-IIIb
Excerpt: as §1

[1] = test system: CD8+ T cell-depleted PBMC; assay: Proliferation of CD8+ T cell-depleted PBMC ([3H]-thymidine); format: cell-based, human; conditions: 0.3, 3, 30, or 300 nM; 7-day culture; 33-50 donors
Procedure: (§2) Here, proliferation was assessed via [^3H]-Thymidine incorporation on days 5, 6, and 7. The order of samples (in triplicate) along the X-axis is media only, KLH, Exenatide, 0.3 nm SIRPα-Fc-CD40L, 3 nm SIRPα-Fc-CD40L, 30 nm SIRPα-Fc-CD40L and 300 nm SIRPα-Fc-CD40L. […] Here, proliferation was assessed by ELISpot. The order of samples (in triplicate) along the X-axis is media only, KLH, Exenatide, 0.3 nm SIRPα-Fc-CD40L, 3 nm SIRPα-Fc-CD40L, 30 nm SIRPα-Fc-CD40L and 300 nm SIRPα-Fc-CD40L.
(§3) The observation that SIRPα-Fc-CD40L stimulated CD40 signaling prompted investigation of other cellular functions that depend upon CD40 signaling. CD8+ T cell-depleted PBMC were isolated from a total of 33-50 different human donors and cultured in the presence of a dose-titration of hSIRPα-Fc-CD40L (FIG. 6A and FIG. 6B).

[2] = test system: CD8+ T cell-depleted PBMC; assay: IL-2 ELISpot of CD8+ T cell-depleted PBMC; format: cell-based, human; conditions: day 8 of the culture
Procedure: as §2, §3

[3] = Repeat-dose safety and activity study in cynomolgus macaques; format: in vivo; conditions: IV infusion weekly for five weeks; 0.1, 1, 10 and 40 mg/kg
Procedure: FIG. 21 is a graph showing cynomolgus macaques that were treated with vehicle, or 0.1, 1, 10, and 40 mg/kg of SIRPα-Fc-CD40L. Blood chemistry analysis assessed peripheral erythrocyte counts, hemoglobin levels, and hematocrit. In addition, the fold-change in lymphocyte count from pre-dose to 24 hours post-dose is shown.
The experiments of this example tested the safety and activity of the human SIRPα-Fc-CD40L chimeric protein following repeat doses in cynomolgus macaques. Briefly, naïve cynomolgus macaques were administered the human SIRPα-Fc-CD40L chimeric protein by intravenous infusion every week, for five consecutive weeks, at doses of 0.1, 1, 10 and 40 mg/kg. Standard hematology and clinical chemistry parameters were collected before and after each dose.
Receptor occupancy was evaluated on circulating CD40+ lymphocytes.

tumors [4] = assay: In vivo tumor model, SIRPα-Fc-OX40L with checkpoint antibodies (Example 14); parameters: species or system mice; conditions: chimeric protein alone
Procedure: The in vivo ability of combinations of the SIRPα-Fc-OX40L chimeric protein with anti-CTLA-4 antibodies or the SIRPα-Fc-OX40L chimeric protein with anti-PD-1 antibodies to target and treat tumors was determined.

tumors [5] = assay: In vivo tumor model, SIRPα-Fc-LIGHT with anti-PD-1 (Example 15); parameters: species or system mice; conditions: combination with anti-PD-1 antibody
Procedure: The in vivo ability of combinations of the SIRPα-Fc-LIGHT chimeric protein with anti-PD-1 antibodies to target and treat tumors was determined. (FIG. 26A and FIG. 26B) FIG. 26C and FIG. 26D include data relevant to the graphs of FIG. 26A and FIG. 26B.

[6] = test system: IFNα1, IFNβ1, CD80 and CD86 expression in macrophages; assay: qRT-PCR of macrophages sorted from macrophage:Toledo lymphoma co-cultures; format: cell-based, human; parameters: macrophage activation and type I interferon gene expression: dose or concentration left out as unconfirmed; conditions: monotherapy; 2 hours
Procedure: (§4) FIG. 8D: Macrophage:Toledo lymphoma co-cultures were harvested 2 hours into phagocytosis assays in the presence of rituximab ([…]), SIRPα-Fc-CD40L ([…]), or the combination of both agents. Macrophages were isolated by CD11b+ FACS, RNA was prepared, cDNA synthesized, and gene expression (IFNa1, IFNb1, CD80, and CD86) assessed by qRT-PCR. Fold change was calculated using DDCT and values obtained from the housekeeping gene ACTB, and the corresponding values from untreated samples. […] After 2 hours, co-cultures were isolated from tissue culture vessels and were stained with a fluorescently conjugated CD11b antibody to discriminate macrophages. Cells were then assessed by flow cytometry for the co-localization of fluorescent signal from both cells types. Identical assays were set up where macrophages were pre-incubated for 1 hour with 20 μg/mL of a commercially available Fc block cocktail or with 20 μg/mL of a CD40 blocking antibody or with 5 μg/mL of a calreticulin blocking peptide. FIG. 8G: RAW 264.7-Lucia ISG cells were cultured with A20 lymphoma cells in the presence of 50 mg/mL of mSIRPα-Fc-CD40L, recombinant Fc-mCD40L, mSIRPα-Fc, or their combination, 1 mg/mL anti-mCD20, or the combination of mSIRPα-Fc-CD40L and anti-mCD20. After 24-hours type I interferon induced luminescence was assessed using a luminometer. The maximum luminescence (RLU) from each experiment was set to 1, and all other samples were normalized accordingly. Values from repeat experiments are shown.
RNA was prepared from macrophages isolated using fluorescent activated cell sorting (FACS) from SIRPα-Fc-CD40L/Rituximab treated co-cultures macrophages and Toledo lymphoma cells. The RNA was assessed by qRT-PCR for expression of IFNα1 and IFNβ1, and the macrophage activation markers CD80 and CD86.

[7] = target: T2, recombinant mouse CD47 (mouse) (UniProt Q61735); assay: dual ELISA: coat mCD47-Fc, detect mCD40-His, tertiary anti-his-HRP, OD450
T2 sequence (looked up): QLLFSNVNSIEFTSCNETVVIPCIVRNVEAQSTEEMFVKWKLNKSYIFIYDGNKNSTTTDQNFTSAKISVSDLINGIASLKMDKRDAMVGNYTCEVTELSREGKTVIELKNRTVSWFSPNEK

[8] = test system: IRF-inducible ISG reporter in RAW264.7 cells; assay: RAW264.7-ISG interferon reporter cells co-cultured with A20 lymphoma cells; format: cell-based, mouse; conditions: monotherapy; 50 mg/mL proteins, 1 mg/mL anti-mCD20; 24 hours
Procedure: as §4, with “Identical assays were set up where macrophages were pre-incubated for 1 hour with 20 μg/mL of a commercially available Fc block cocktail or with 20 μg/mL of a CD40 blocking antibody or with 5 μg/mL of a calreticulin blocking peptide. FIG. 8G: RAW 264.7-Lucia ISG cells were cultured with A20 lymphoma cells in the presence of 50 mg/mL of mSIRPα-Fc-CD40L, recombinant Fc-mCD40L, mSIRPα-Fc, or their combination, 1 mg/mL anti-mCD20, or the combination of mSIRPα-Fc-CD40L and anti-mCD20.” left out, “Values from repeat experiments are shown.” left out
Additionally, a macrophage reporter system was used to detect activation. […] After 24 hours, culture supernatant was collected and assessed for luciferase activity, which would indicate activation of a type I interferon response in the RAW-ISG reporter cells. […]

Sequence of FcγR-Ia (P12314 16-374): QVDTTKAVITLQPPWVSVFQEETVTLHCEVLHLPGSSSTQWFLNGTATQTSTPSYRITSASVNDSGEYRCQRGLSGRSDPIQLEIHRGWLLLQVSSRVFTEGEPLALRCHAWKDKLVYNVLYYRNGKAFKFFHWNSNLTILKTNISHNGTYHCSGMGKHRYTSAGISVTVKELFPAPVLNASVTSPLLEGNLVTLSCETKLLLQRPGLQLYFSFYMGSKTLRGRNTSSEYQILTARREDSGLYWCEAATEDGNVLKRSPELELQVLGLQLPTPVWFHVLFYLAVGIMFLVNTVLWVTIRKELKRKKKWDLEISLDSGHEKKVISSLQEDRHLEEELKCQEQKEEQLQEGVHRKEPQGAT
Sequence of FcγR-IIIb (O75015 17-200): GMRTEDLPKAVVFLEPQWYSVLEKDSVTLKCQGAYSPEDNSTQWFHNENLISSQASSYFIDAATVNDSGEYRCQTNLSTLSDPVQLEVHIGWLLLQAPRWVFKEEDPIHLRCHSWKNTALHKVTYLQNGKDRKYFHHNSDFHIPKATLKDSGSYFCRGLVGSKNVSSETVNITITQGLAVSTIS

binding (FcγR-Ia): undetectable binding
binding (FcγR-IIb): undetectable binding
binding (FcγR-IIIb): undetectable binding
Substance: hSIRPα-Fc-CD40L: chimeric protein: ECD of human SIRPα fused via an antibody Fc domain to ECD of human CD40L (SEQ ID NO: 60)
proliferation of human PBMC [1]: dose-dependent proliferation
number of IL-2-secreting PBMC [2]: dose-dependent increase
hemolysis [3]: no evidence
thrombocytopenia [3]: no evidence

Substance: SIRPα(CD172a)-Fc-OX40L: ECD of SIRPα and ECD of OX40L fused via an antibody Fc domain (SEQ ID NO: 61)
survival (tumors [4]): any survivors by the sixteenth day
tumor size (tumors [4]): effective in reducing tumor size

Substance: SIRPα(CD172a)-Fc-LIGHT: ECD of SIRPα, hinge-CH2-CH3 Fc linker and ECD of LIGHT (SEQ ID NO: 63)
survival (tumors [5]): any survivors by the twenty-fifth day
tumor size (tumors [5]): most effective in reducing tumor size
rejection of secondary tumor challenge (tumors [5]; no additional treatment): 66.6%

Substance: rituximab: anti-CD20 antibody [reference compound]
macrophage activation and type I interferon gene expression [6]: induced macrophage activation and the expression of type I interferon genes

EC50 [7]: 7.37 nM and 8.73 nM
Substance: mSIRPα-Fc-CD40L chimeric protein (murine SIRPα ECD - Fc - murine CD40L ECD) (from UniProt P97797 32-373; P27548 47-260) (Fc fusion)

Substance: SIRPα-Fc: recombinant single-sided SIRPα-Fc protein [reference compound]
interferon gene-driven luciferase activity (type I IFN response) [8]: no significant signal
